# Test results taken from patent US20250179078A1, “INHIBITORS OF NLRP3” (PTC THERAPEUTICS, INC., priority 2022, published 2025).
# Biological target: T1, NLRP3 (Homo sapiens, UniProt Q96P20)
# T1 construct: host or cells: THP-1 cells differentiated with PMA
# Test: IL-1β Secretion Assay (NLRP3-dependent IL1β secretion in THP1 cells)
# Type: cell-based
# Details: PMA-differentiated THP-1 cells; compounds incubated 20 h; 2.5 μM Nigericin 3 h; HTRF IL-1β readout; read-out: IC50 IL-1β Inhibition
# Protocol: Monocytic THP-1 cells (ATCC: TIB-202) were maintained in growth media consisting of RPMI 1640 medium (ThermoFisher, Cat #11875-085), 10% FBS (ThermoFisher) and 0.05 mM β-mercaptoethanol (ThermoFisher, Cat #21985-023), according to the provider's instructions. The cell concentration was adjusted to 7.5×10^5 cells/mL, and plated in complete growth media with a final concentration of 100 ng/mL phorbol 12-myristate 13-acetate (PMA, Sigma #P8139). Cells were seeded at 100 µL/well into a 96-well cell culture plate (ThermoFisher Cat #165305) and allowed to differentiate for 24 h in a cell culture incubator at 37° C. with 5% CO2. Cells were washed 1× with 100 ul PBS and replaced with fresh RPMI+5% FBS. Compounds were serial diluted in DMSO with 3 fold dilution for a total of 7 concentrations. Diluted compounds were added to the cells at a ratio of 1:200 and incubated for 20 h. The NLRP3 inflammasome was activated with the addition of 2.5 μM Nigericin (Sigma: Cat #SML1779-1 ml), for 3 h. After incubation, 15 μL of conditioned media was removed and assayed for levels of IL-1β using the HTRF IL-1β assay kit (Cisbio: Cat #62HIL1BPEH) as per the manufacturer's instructions.
# Compounds, once produced and prepared according to the present invention, can be assessed in variety of assays to characterize their activities. For example, NLRP3-dependent IL1β secretion was evaluated in THP1 cells. IC50 values of IL1β inhibition were calculated from the plot of percentage of inhibition versus the inhibitor concentration by a logistics fit. TABLE I depict examples of compounds according to generic Formula I. Data which is <1 nM is listed as *****; data 1-10 nM is listed as ****; data 10-100 nM is listed as ***, data 100-300 nM is listed as **, data ≥300 nM is listed as *.
# T1 sequence (Q96P20 whole entry): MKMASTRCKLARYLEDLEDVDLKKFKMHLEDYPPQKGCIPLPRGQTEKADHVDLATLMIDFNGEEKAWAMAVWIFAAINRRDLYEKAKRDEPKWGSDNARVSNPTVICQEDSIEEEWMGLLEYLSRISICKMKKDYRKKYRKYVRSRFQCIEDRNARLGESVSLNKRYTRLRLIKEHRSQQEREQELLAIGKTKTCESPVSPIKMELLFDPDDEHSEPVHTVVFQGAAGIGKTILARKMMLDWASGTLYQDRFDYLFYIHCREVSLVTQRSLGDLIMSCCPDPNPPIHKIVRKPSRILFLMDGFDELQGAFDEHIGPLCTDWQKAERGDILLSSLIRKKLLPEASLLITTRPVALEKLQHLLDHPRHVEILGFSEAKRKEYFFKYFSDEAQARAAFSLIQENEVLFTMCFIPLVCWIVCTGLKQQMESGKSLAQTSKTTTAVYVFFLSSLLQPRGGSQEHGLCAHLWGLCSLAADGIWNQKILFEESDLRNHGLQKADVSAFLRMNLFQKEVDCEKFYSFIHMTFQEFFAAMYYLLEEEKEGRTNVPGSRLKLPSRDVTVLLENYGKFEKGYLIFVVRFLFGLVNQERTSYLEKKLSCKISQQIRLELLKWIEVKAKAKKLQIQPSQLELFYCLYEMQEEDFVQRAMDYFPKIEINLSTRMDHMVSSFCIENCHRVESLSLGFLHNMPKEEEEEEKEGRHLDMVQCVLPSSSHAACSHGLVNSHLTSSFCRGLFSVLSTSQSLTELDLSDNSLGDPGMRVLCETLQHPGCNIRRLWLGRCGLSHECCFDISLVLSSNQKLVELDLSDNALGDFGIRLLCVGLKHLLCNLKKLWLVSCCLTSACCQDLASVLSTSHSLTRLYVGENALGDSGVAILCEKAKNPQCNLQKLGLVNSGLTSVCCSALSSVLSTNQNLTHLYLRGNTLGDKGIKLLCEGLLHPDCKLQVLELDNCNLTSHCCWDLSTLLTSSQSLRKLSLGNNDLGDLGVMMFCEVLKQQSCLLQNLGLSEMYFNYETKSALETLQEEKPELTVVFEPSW
row,Structure (SMILES),IC50 [nM]
1,"O[C@@H]1CCCCC[C@@H]1Nc1nnc(-c2ccc(C(F)(F)F)cc2CC(F)(F)F)c2cccn12 (racemic) [Compound 126, (1S,2R)-2-({1-[2-(2,2,2-trifluoroethyl)-4-(trifluoromethyl)phenyl]pyrrolo[1,2-d][1,2,4]triazin-4-yl}amino)cycloheptan-1-ol AND (1R,2S)-2-({1-[2-(2,2,2-trifluoroethyl)-4-(trifluoromethyl)phenyl]pyrrolo[1,2-d][1,2,4]triazin-4-yl}amino)cycloheptan-1-ol]",1 to 10
2,"O[C@@H]1CCCC[C@@H](Nc2nnc(-c3ccc(C(F)(F)F)cc3CC(F)(F)F)c3cccn23)C1 (racemic) [Compound 129, (1R,3R)-3-({1-[2-(2,2,2-trifluoroethyl)-4-(trifluoromethyl)phenyl]pyrrolo[1,2-d][1,2,4]triazin-4-yl}amino)cycloheptan-1-ol AND (1S,3S)-3-({1-[2-(2,2,2-trifluoroethyl)-4-(trifluoromethyl)phenyl]pyrrolo[1,2-d][1,2,4]triazin-4-yl}amino)cycloheptan-1-ol]",1 to 10
3,"C[C@]1(O)CCCC[C@@H]1Nc1nnc(-c2ccc(C(F)(F)F)cc2CC(F)(F)F)c2cncn12 (racemic) [Compound 283, (1S,2S)-1-methyl-2-({1-[2-(2,2,2-trifluoroethyl)-4-(trifluoromethyl)phenyl]imidazo[1,5-d][1,2,4]triazin-4-yl}amino)cyclohexan-1-ol AND (1R,2R)-1-methyl-2-({1-[2-(2,2,2-trifluoroethyl)-4-(trifluoromethyl)phenyl]imidazo[1,5-d][1,2,4]triazin-4-yl}amino)cyclohexan-1-ol]",1 to 10
4,"C[C@@H](Nc1nnc(-c2ccc(C(F)(F)F)cc2OC(F)F)c2cccn12)c1cccc(O)c1 (single isomer, unassigned) [Compound 102]",1 to 10
5,"C[C@H](Nc1nnc(-c2ccc(C(F)(F)F)cc2OC(F)F)c2cccn12)c1cccc(O)c1 (single isomer, unassigned) [Compound 103]",10 to 100
6,"COc1ccc(-c2nnc(N[C@H]3CCCC[C@]3(C)O)n3cccc23)c(OC(F)(F)F)c1 (single isomer, unassigned) [Compound 180]",1 to 10
7,"COc1ccc(-c2nnc(N[C@@H]3CCCC[C@@]3(C)O)n3cccc23)c(OC(F)(F)F)c1 (single isomer, unassigned) [Compound 181]",≥ 300
8,"COc1ccc(-c2nnc(NC(C)c3cccc(O)c3)n3cncc23)c(OC(F)(F)F)c1 (single isomer, unassigned) [Compound 247]",< 1
9,"COc1ccc(-c2nnc(N[C@H](C)c3cccc(O)c3)n3cncc23)c(OC(F)(F)F)c1 (single isomer, unassigned) [Compound 248]",≥ 300
10,"COc1ccc(-c2nnc(NC(C)c3cccnc3)n3cncc23)c(OC(F)(F)F)c1 (single isomer, unassigned) [Compound 308]",100 to 300
11,"COc1ccc(-c2nnc(NC(C)c3cccnc3)n3cncc23)c(OC(F)(F)F)c1 (single isomer, unassigned) [Compound 309]",10 to 100
12,"COc1ccc(-c2nnc(N[C@H]3CCCC[C@]3(C)O)n3cncc23)c(OC(F)(F)F)c1 (single isomer, unassigned) [Compound 310]",≥ 300
13,"COc1ccc(-c2nnc(N[C@@H]3CCCC[C@@]3(C)O)n3cncc23)c(OC(F)(F)F)c1 (single isomer, unassigned) [Compound 311]",1 to 10
14,"COc1ccc(-c2nnc(N[C@H]3C[C@@](C)(O)C3)n3cccc23)c(CC(F)(F)F)c1 [Compound 1, (1s,3s)-3-({1-[4-methoxy-2-(2,2,2-trifluoroethyl)phenyl]pyrrolo[1,2-d][1,2,4]triazin-4-yl}amino)-1-methylcyclobutan-1-ol]",1 to 10
15,"CN1CCC[C@@H](Nc2nnc(-c3ccc(C(F)(F)F)cc3CC(F)(F)F)c3cncn23)C1 [Compound 2, N-[(3R)-1-methylpiperidin-3-yl]-1-[2-(2,2,2-trifluoroethyl)-4-(trifluoromethyl)phenyl]imidazo[1,5-d][1,2,4]triazin-4-amine]",< 1
16,"Cc1cc2c(-c3ccc(C(F)(F)F)cc3OC(F)(F)F)nnc(N[C@H]3C[C@@](C)(O)C3)n2n1 [Compound 3, (1s,3s)-1-methyl-3-({2-methyl-4-[2-(trifluoromethoxy)-4-(trifluoromethyl)phenyl]pyrazolo[1,5-d][1,2,4]triazin-7-yl}amino)cyclobutan-1-ol]",1 to 10
17,"C[C@]1(O)C[C@@H](Nc2nnc(-c3ccc(C(F)(F)F)cc3C(F)(F)F)c3ccnn23)C1 [Compound 4, (1s,3s)-3-({4-[2,4-bis(trifluoromethyl)phenyl]pyrazolo[1,5-d][1,2,4]triazin-7-yl}amino)-1-methylcyclobutan-1-ol]",1 to 10
18,"CCN1C[C@H](F)C[C@@H](Nc2nnc(-c3ccc(C(F)(F)F)cc3OC(F)F)c3c(F)ccn23)C1 [Compound 5, 1-[2-(difluoromethoxy)-4-(trifluoromethyl)phenyl]-N-[(3R,5R)-1-ethyl-5-fluoropiperidin-3-yl]-8-fluoropyrrolo[1,2-d][1,2,4]triazin-4-amine]",1 to 10
19,"FC(F)(F)c1ccc(-c2nnc(N[C@@H]3CCCN(C4CCCOC4)C3)n3cccc23)c(C(F)(F)F)c1 (stereo partly drawn) [Compound 6, 1-[2,4-bis(trifluoromethyl)phenyl]-N-[(3R)-1-(oxan-3-yl)piperidin-3-yl]pyrrolo[1,2-d][1,2,4]triazin-4-amine]",10 to 100
20,"CN(C)C1CCCN(c2nnc(-c3ccc(C(F)(F)F)cc3C(F)(F)F)c3cccn23)C1 (stereo not shown) [Compound 7, 1-{1-[2,4-bis(trifluoromethyl)phenyl]pyrrolo[1,2-d][1,2,4]triazin-4-yl}-N,N-dimethylpiperidin-3-amine]",10 to 100
21,"COc1ccc(-c2nnc(N[C@@H]3CCCN(C)C3)n3cccc23)c(OC(F)(F)F)c1 [Compound 8, 1-[4-methoxy-2-(trifluoromethoxy)phenyl]-N-[(3R)-1-methylpiperidin-3-yl]pyrrolo[1,2-d][1,2,4]triazin-4-amine]",1 to 10
22,"COc1ccc(-c2nnc(N[C@H]3C[C@@](C)(O)C3)n3cccc23)c(OC(F)(F)F)c1 [Compound 9, (1s,3s)-3-({1-[4-methoxy-2-(trifluoromethoxy)phenyl]pyrrolo[1,2-d][1,2,4]triazin-4-yl}amino)-1-methylcyclobutan-1-ol]",1 to 10
23,"CC(C)CN1CCC[C@@H](Nc2nnc(-c3ccc(C(F)(F)F)cc3C(F)(F)F)c3cccn23)C1 [Compound 10, 1-[2,4-bis(trifluoromethyl)phenyl]-N-[(3R)-1-(2-methylpropyl)piperidin-3-yl]pyrrolo[1,2-d][1,2,4]triazin-4-amine]",1 to 10
24,"Cc1cc2c(-c3ccc(Cl)cc3C(F)F)nnc(N[C@@H]3CCCN(C)C3)n2c1 [Compound 11, 1-[4-chloro-2-(difluoromethyl)phenyl]-7-methyl-N-[(3R)-1-methylpiperidin-3-yl]pyrrolo[1,2-d][1,2,4]triazin-4-amine]",10 to 100
25,"COc1ccc(-c2nnc(N[C@@H]3CCCN(C)C3)n3cc(C)cc23)c(OC(F)F)c1 [Compound 12, 1-[2-(difluoromethoxy)-4-methoxyphenyl]-7-methyl-N-[(3R)-1-methylpiperidin-3-yl]pyrrolo[1,2-d][1,2,4]triazin-4-amine]",1 to 10
